The supplement of paper PMC10307832

Key:
Assay in all cases: relative viability (nuclei count vs DMSO), 5 days (fraction); higher = more cells survive
Ispinesib + Palbociclib = compound: Cc1ccc(C(=O)N(CCCN)[C@@H](c2nc3cc(Cl)ccc3c(=O)n2Cc2ccccc2)C(C)C)cc1 [Ispinesib] + CC(=O)c1c(C)c2cnc(Nc3ccc(N4CCNCC4)cn3)nc2n(C2CCCC2)c1=O [Palbociclib] (partner 0.5 µM)
Procedure, shortened: (§1)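 Lung cancer cell lines in 1536-well plates were dosed by pin tool the day after seeding, either with one drug alone or with a fixed anchor-drug dose plus five library-drug doses (not always all listed) in √10 steps. After 5 days, cells were fixed and their nuclei stained in one step (final 0.05% Triton X-100, 1% formaldehyde, 1 ug/ml Hoechst), then counted on 4× images. Relative viability is the nuclei count in treated wells divided by that in vehicle wells. Values are medians of duplicate plates.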

Ispinesib + Pictilisib = compound: Cc1ccc(C(=O)N(CCCN)[C@@H](c2nc3cc(Cl)ccc3c(=O)n2Cc2ccccc2)C(C)C)cc1 [Ispinesib] + CS(=O)(=O)N1CCN(Cc2cc3nc(-c4cccc5[nH]ncc45)nc(N4CCOCC4)c3s2)CC1 [Pictilisib] (partner 1 µM)
Procedure, shortened: as §1

Linsitinib + Pemetrexed = compound: C[C@]1(O)C[C@@H](c2nc(-c3ccc4ccc(-c5ccccc5)nc4c3)c3c(N)nccn32)C1 [Linsitinib] + Nc1nc2[nH]cc(CCc3ccc(C(=O)N[C@@H](CCC(=O)O)C(=O)O)cc3)c2c(=O)[nH]1 [Pemetrexed] (partner 0.2 µM)
Procedure, shortened: as §1

Ispinesib + Bortezomib = compound: Cc1ccc(C(=O)N(CCCN)[C@@H](c2nc3cc(Cl)ccc3c(=O)n2Cc2ccccc2)C(C)C)cc1 [Ispinesib] + CC(C)C[C@H](NC(=O)[C@H](Cc1ccccc1)NC(=O)c1cnccn1)B(O)O [Bortezomib] (partner 0.002 µM)
Procedure, shortened: as §1

Cell Line | relative viability (Ispinesib + Palbociclib; first compound 0.001 µM) | relative viability (Ispinesib + Palbociclib; first compound 0.003162 µM) | relative viability (Ispinesib + Palbociclib; first compound 0.01 µM) | relative viability (Ispinesib + Palbociclib; first compound 0.03162 µM) | relative viability (Ispinesib + Palbociclib; first compound 0.1 µM) | relative viability (Ispinesib + Pictilisib; first compound 0.001 µM) | relative viability (Ispinesib + Pictilisib; first compound 0.003162 µM) | relative viability (Ispinesib + Pictilisib; first compound 0.01 µM) | relative viability (Ispinesib + Pictilisib; first compound 0.03162 µM) | relative viability (Ispinesib + Pictilisib; first compound 0.1 µM) | relative viability (Linsitinib + Pemetrexed; first compound 0.01 µM) | relative viability (Linsitinib + Pemetrexed; first compound 0.03162 µM) | relative viability (Linsitinib + Pemetrexed; first compound 0.1 µM) | relative viability (Linsitinib + Pemetrexed; first compound 0.3162 µM) | relative viability (Linsitinib + Pemetrexed; first compound 1 µM) | relative viability (Ispinesib + Bortezomib; first compound 0.001 µM) | relative viability (Ispinesib + Bortezomib; first compound 0.003162 µM) | relative viability (Ispinesib + Bortezomib; first compound 0.01 µM) | relative viability (Ispinesib + Bortezomib; first compound 0.03162 µM) | relative viability (Ispinesib + Bortezomib; first compound 0.1 µM)
NCI-H1437 | 0.329 | 0.319 | 0.325 | 0.332 | 0.13 | 0.46 | 0.48 | 0.477 | 0.393 | 0.207 | 0.317 | 0.247 | 0.307 | 0.288 | 0.275 | 0.451 | 0.608 | 0.592 | 0.487 | 0.134
NCI-H1650 | 0.368 | 0.346 | 0.3 | 0.172 | 0.254 | 0.586 | 0.576 | 0.338 | 0.164 | 0.266 | 0.301 | 0.279 | 0.379 | 0.334 | 0.308 | 0.187 | 0.211 | 0.188 | 0.173 | 0.205
NCI-H1651 | 0.526 | 0.57 | 0.61 | 0.518 | 0.576 | 0.623 | 0.66 | 0.8 | 0.491 | 0.18 | 0.345 | 0.489 | 0.56 | 0.608 | 0.596 | 0.934 | 1.16 | 0.926 | 0.796 | 0.712
NCI-H1666 | 0.736 | 0.63 | 0.679 | 0.705 | 0.52 | 0.42 | 0.404 | 0.42 | 0.302 | 0.312 | 0.823 | 0.625 | 0.83 | 0.722 | 0.741 | 0.704 | 0.761 | 0.64 | 0.305 | 0.321
NCI-H1734 | 0.396 | 0.224 | 0.41 | 0.346 | 0.279 | 0.414 | 0.476 | 0.506 | 0.34 | 0.233 | 0.413 | 0.324 | 0.404 | 0.417 | 0.408 | 0.943 | 0.954 | 0.997 | 0.962 | 0.328
NCI-H1755 | 0.467 | 0.451 | 0.457 | 0.431 | 0.463 | 0.403 | 0.464 | 0.534 | 0.22 | 0.194 | 0.388 | 0.401 | 0.653 | 0.234 | 0.398 | 0.975 | 1.07 | 1.01 | 0.605 | 0.249
NCI-H1792 | 0.725 | 0.762 | 0.859 | 0.686 | 0.301 | 0.289 | 0.303 | 0.254 | 0.177 | 0.302 | 1.05 | 0.695 | 0.891 | 0.51 | 0.321 | 1.14 | 1.02 | 1.09 | 0.797 | 0.337
NCI-H1915 | 0.528 | 0.694 | 0.542 | 0.491 | 0.41 | 0.969 | 1.07 | 0.977 | 0.532 | 0.232 | 0.558 | 0.291 | 0.495 | 0.588 | 0.486 | 1.04 | 1.14 | 1.13 | 0.797 | 0.172
NCI-H1975 | 0.663 | 0.683 | 0.581 | 0.311 | 0.192 | 0.295 | 0.276 | 0.272 | 0.153 | 0.164 | 0.287 | 0.239 | 0.293 | 0.287 | 0.289 | 0.471 | 0.437 | 0.331 | 0.19 | 0.261
NCI-H1993 | 0.566 | 0.404 | 0.66 | 0.673 | 0.487 | 0.808 | 0.828 | 0.806 | 0.7 | 0.611 | 0.59 | 0.621 | 0.565 | 0.449 | 0.404 | 1.23 | 1.14 | 1.1 | 1.03 | 0.585
NCI-H2009 | 0.234 | 0.153 | 0.222 | 0.113 | 0.169 | 0.782 | 0.804 | 0.58 | 0.0875 | 0.173 | 1.15 | 0.944 | 1.09 | 0.946 | 0.942 | 1 | 0.986 | 0.854 | 0.189 | 0.261
NCI-H2023 | 0.462 | 0.392 | 0.383 | 0.145 | 0.138 | 0.271 | 0.237 | 0.273 | 0.0793 | 0.125 | 0.257 | 0.134 | 0.238 | 0.0952 | 0.176 | 1 | 1.02 | 0.713 | 0.144 | 0.147
NCI-H2085 | 0.384 | 0.411 | 0.481 | 0.469 | 0.402 | 0.485 | 0.406 | 0.504 | 0.43 | 0.307 | 0.887 | 0.887 | 0.934 | 0.928 | 0.905 | 1.08 | 1.08 | 1.18 | 0.818 | 0.484
NCI-H2087 | 0.206 | 0.224 | 0.262 | 0.172 | 0.112 | 0.94 | 0.881 | 1.13 | 0.313 | 0.187 | 0.559 | 0.591 | 0.571 | 0.555 | 0.646 | 0.852 | 0.978 | 1.05 | 0.477 | 0.153
NCI-H2126 | 0.335 | 0.393 | 0.314 | 0.339 | 0.385 | 0.505 | 0.56 | 0.563 | 0.476 | 0.39 | 0.707 | 0.67 | 0.779 | 0.511 | 0.598 | 1.1 | 1.14 | 1.24 | 1.14 | 0.773
NCI-H2228 | 1 | 1.05 | 1.08 | 0.544 | 0.386 | 0.483 | 0.554 | 0.469 | 0.319 | 0.264 | 0.398 | 0.297 | 0.357 | 0.311 | 0.331 | 1.2 | 1.21 | 1.48 | 0.474 | 0.448
NCI-H2347 | 0.406 | 0.388 | 0.423 | 0.395 | 0.419 | 0.798 | 0.92 | 0.592 | 0.523 | 0.419 | 0.418 | 0.445 | 0.409 | 0.399 | 0.416 |  | 1 | 0.665 | 1.08 | 0.758
NCI-H2405 | 0.546 | 0.555 | 0.512 | 0.479 | 0.397 | 0.543 | 0.455 | 0.395 | 0.317 | 0.201 | 1.08 | 1.09 | 1.06 | 0.787 | 0.762 | 1.02 | 1.05 | 1.11 | 0.924 | 0.81
NCI-H3122 | 0.221 | 0.216 | 0.216 | 0.202 | 0.157 | 0.601 | 0.838 | 0.635 | 0.569 | 0.162 | 0.18 | 0.177 | 0.212 | 0.184 | 0.196 | 1.07 | 0.945 | 1.09 | 1.06 | 0.202
PC-3 [JPC-3] | 0.533 | 0.55 | 0.548 | 0.553 | 0.395 | 0.751 | 0.812 | 0.876 | 0.628 | 0.53 | 1.13 | 1.04 | 1.2 | 0.891 | 0.665 | 0.796 | 0.869 | 0.903 | 0.763 | 0.297
PC-14 | 0.493 | 0.439 | 0.134 | 0.0579 | 0.152 | 0.796 | 0.668 | 0.78 | 0.232 | 0.169 | 0.137 | 0.0865 | 0.16 | 0.121 | 0.148 | 0.859 | 1.01 | 0.962 | 0.71 | 0.0916
RERF-LC-KJ | 1.11 | 1.03 | 0.935 | 0.68 | 0.583 | 0.508 | 1.42 | 0.445 | 0.322 | 0.297 | 0.414 | 0.461 | 0.48 | 0.349 | 0.491 | 1.05 | 1.16 | 1.09 | 0.905 | 0.597
SK-LU-1 | 0.323 | 0.412 | 0.379 | 0.312 | 0.325 | 0.556 | 0.65 | 0.674 | 0.301 | 0.354 | 0.913 | 0.686 | 0.997 | 0.894 | 0.985 | 1.32 | 1.39 | 1.48 | 0.585 | 0.461
SW 1573 | 0.385 | 0.404 | 0.32 | 0.18 | 0.218 | 0.483 | 0.469 | 0.715 | 0.474 | 0.232 | 0.912 | 0.676 | 0.921 | 0.828 | 0.732 | 1.07 | 1.05 | 1.42 | 0.929 | 0.304
